Where no end group is shown, it is not given here. [ ]: non-standard residue; d: D form. pT = C[C@@H](OP(=O)(O)O)[C@H](N)C(=O)O; Lys(Me) = CNCCCC[C@H](N)C(=O)O
What was measured:
Assay in all cases: Histone peptide microarray
Format in all cases: binding, human
DIDO1 = tested on: DIDO1
Summary of the method: (§1)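 Each reader, produced as a GST fusion and purified, was tested at 0.5 μM on synthetic histone peptides (293 in total) carrying single or combinatorial marks. Intensities averaged over four replicates.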

MLL5 = tested on: MLL5
Summary of the method: as §1

CHD5 (PPCC) = tested on: CHD5 (PPCC)
Summary of the method: as §1

CHD4 (PPCC) = tested on: CHD4 (PPCC)
Summary of the method: as §1

PHF23 = tested on: PHF23
Summary of the method: as §1

AIRE (PP) = tested on: AIRE (PP)
Summary of the method: as §1

ING4 = tested on: ING4
Summary of the method: as §1

PHF2 = tested on: PHF2
Summary of the method: as §1

TAF3 = tested on: TAF3
Summary of the method: as §1

PHF21A = tested on: PHF21A
Summary of the method: as §1

ING1 = tested on: ING1
Summary of the method: as §1

ING5 = tested on: ING5
Summary of the method: as §1

PHF8 = tested on: PHF8
Summary of the method: as §1

BAZ2B = tested on: BAZ2B
Summary of the method: as §1

SP140L = tested on: SP140L
Summary of the method: as §1

DPF2 (PPC2W2) = tested on: DPF2 (PPC2W2)
Summary of the method: as §1

RAG2 = tested on: RAG2
Summary of the method: as §1

KDM4C (TTP) = tested on: KDM4C (TTP)
Summary of the method: as §1

ING3 = tested on: ING3
Summary of the method: as §1

KDM5A (3) = tested on: KDM5A (3)
Summary of the method: as §1

CHD5 (PCC) = tested on: CHD5 (PCC)
Summary of the method: as §1

KDM7A = tested on: KDM7A
Summary of the method: as §1

MORC3 (CW) = tested on: MORC3 (CW)
Summary of the method: as §1

ING2 = tested on: ING2
Summary of the method: as §1

KDM5A (1) = tested on: KDM5A (1)
Summary of the method: as §1

PHF13 = tested on: PHF13
Summary of the method: as §1

PHRF1 (RP) = tested on: PHRF1 (RP)
Summary of the method: as §1

KDM5B (3) = tested on: KDM5B (3)
Summary of the method: as §1

BPTF (PB) = tested on: BPTF (PB)
Summary of the method: as §1

KDM5B (1) = tested on: KDM5B (1)
Summary of the method: as §1

TRIM66 (PB) = tested on: TRIM66 (PB)
Summary of the method: as §1

H3.3T32pK36me1 (27-45): H3.3 27-45 (KSAPS[pT]GGV[Lys(Me)]KPHRYRPGT; UniProt P84243 28-46, looked up, fragment)
Array Heatmap value (peptide array signal) (DIDO1; DIDO1, sheet "Array Heatmap", each array performed twice, total n = 4): 0.6188
Array Heatmap value (peptide array signal) (MLL5; MLL5, sheet "Array Heatmap", each array performed twice, total n = 4): 0.508
Array Heatmap value (peptide array signal) (CHD5 (PPCC); CHD5 (PPCC), sheet "Array Heatmap", each array performed twice, total n = 4): 0.4567
Array Heatmap value (peptide array signal) (CHD4 (PPCC); CHD4 (PPCC), sheet "Array Heatmap", each array performed twice, total n = 4): 0.5131
Array Heatmap value (peptide array signal) (PHF23; PHF23, sheet "Array Heatmap", each array performed twice, total n = 4): 0.4636
Array Heatmap value (peptide array signal) (AIRE (PP); AIRE (PP), sheet "Array Heatmap", each array performed twice, total n = 4): 0.3866
Array Heatmap value (peptide array signal) (ING4; ING4, sheet "Array Heatmap", each array performed twice, total n = 4): 0.3862
Array Heatmap value (peptide array signal) (PHF2; PHF2, sheet "Array Heatmap", each array performed twice, total n = 4): 0.4286
Array Heatmap value (peptide array signal) (TAF3; TAF3, sheet "Array Heatmap", each array performed twice, total n = 4): 0.2218
Array Heatmap value (peptide array signal) (PHF21A; PHF21A, sheet "Array Heatmap", each array performed twice, total n = 4): 0.4142
Array Heatmap value (peptide array signal) (ING1; ING1, sheet "Array Heatmap", each array performed twice, total n = 4): 0.4774
Array Heatmap value (peptide array signal) (ING5; ING5, sheet "Array Heatmap", each array performed twice, total n = 4): 0.288
Array Heatmap value (peptide array signal) (PHF8; PHF8, sheet "Array Heatmap", each array performed twice, total n = 4): 0.3083
Array Heatmap value (peptide array signal) (BAZ2B; BAZ2B, sheet "Array Heatmap", each array performed twice, total n = 4): 0.3924
Array Heatmap value (peptide array signal) (SP140L; SP140L, sheet "Array Heatmap", each array performed twice, total n = 4): 0.3216
Array Heatmap value (peptide array signal) (DPF2 (PPC2W2); DPF2 (PPC2W2), sheet "Array Heatmap", each array performed twice, total n = 4): 0.6269
Array Heatmap value (peptide array signal) (RAG2; RAG2, sheet "Array Heatmap", each array performed twice, total n = 4): 0.206
Array Heatmap value (peptide array signal) (KDM4C (TTP); KDM4C (TTP), sheet "Array Heatmap", each array performed twice, total n = 4): 0.4138
Array Heatmap value (peptide array signal) (ING3; ING3, sheet "Array Heatmap", each array performed twice, total n = 4): 0.3966
Array Heatmap value (peptide array signal) (KDM5A (3); KDM5A (3), sheet "Array Heatmap", each array performed twice, total n = 4): 0.429
Array Heatmap value (peptide array signal) (CHD5 (PCC); CHD5 (PCC), sheet "Array Heatmap", each array performed twice, total n = 4): 0.7362
Array Heatmap value (peptide array signal) (KDM7A; KDM7A, sheet "Array Heatmap", each array performed twice, total n = 4): 0.3406
Array Heatmap value (peptide array signal) (MORC3 (CW); MORC3 (CW), sheet "Array Heatmap", each array performed twice, total n = 4): 0.3018
Array Heatmap value (peptide array signal) (ING2; ING2, sheet "Array Heatmap", each array performed twice, total n = 4): 0.5942
Array Heatmap value (peptide array signal) (KDM5A (1); KDM5A (1), sheet "Array Heatmap", each array performed twice, total n = 4): 0.4102
Array Heatmap value (peptide array signal) (PHF13; PHF13, sheet "Array Heatmap", each array performed twice, total n = 4): 0.5172
Array Heatmap value (peptide array signal) (PHRF1 (RP); PHRF1 (RP), sheet "Array Heatmap", each array performed twice, total n = 4): 0.3716
Array Heatmap value (peptide array signal) (KDM5B (3); KDM5B (3), sheet "Array Heatmap", each array performed twice, total n = 4): 0.4083
Array Heatmap value (peptide array signal) (BPTF (PB); BPTF (PB), sheet "Array Heatmap", each array performed twice, total n = 4): 0.2876
Array Heatmap value (peptide array signal) (KDM5B (1); KDM5B (1), sheet "Array Heatmap", each array performed twice, total n = 4): 0.6155
Array Heatmap value (peptide array signal) (TRIM66 (PB); TRIM66 (PB), sheet "Array Heatmap", each array performed twice, total n = 4): 0.5132

H3Cit2 + K4ac + K9ac + K14ac + K18ac: H3 1-20
Array Heatmap signal, DIDO1 (DIDO1; GST-tagged DIDO1, histone peptide array, arrays performed twice, n of 4): 0.6333
Array Heatmap signal, MLL5 (MLL5; GST-tagged MLL5, histone peptide array, arrays performed twice, n of 4): 0.5262
Array Heatmap signal, CHD5 (PPCC) (CHD5 (PPCC); GST-tagged CHD5 (PPCC = Dual PHD + Dual Chromodomain), histone peptide array, arrays performed twice, n of 4): 0.5544
Array Heatmap signal, CHD4 (PPCC) (CHD4 (PPCC); GST-tagged CHD4 (PPCC = Dual PHD + Dual Chromodomain), histone peptide array, arrays performed twice, n of 4): 0.5849
Array Heatmap signal, PHF23 (PHF23; GST-tagged PHF23, histone peptide array, arrays performed twice, n of 4): 0.5298
Array Heatmap signal, AIRE (PP) (AIRE (PP); GST-tagged AIRE (PP), histone peptide array, arrays performed twice, n of 4): 0.5046
Array Heatmap signal, ING4 (ING4; GST-tagged ING4, histone peptide array, arrays performed twice, n of 4): 0.466
Array Heatmap signal, PHF2 (PHF2; GST-tagged PHF2, histone peptide array, arrays performed twice, n of 4): 0.465
Array Heatmap signal, TAF3 (TAF3; GST-tagged TAF3, histone peptide array, arrays performed twice, n of 4): 0.2461
Array Heatmap signal, PHF21A (PHF21A; GST-tagged PHF21A, histone peptide array, arrays performed twice, n of 4): 0.4553
Array Heatmap signal, ING1 (ING1; GST-tagged ING1, histone peptide array, arrays performed twice, n of 4): 0.5011
Array Heatmap signal, ING5 (ING5; GST-tagged ING5, histone peptide array, arrays performed twice, n of 4): 0.342
Array Heatmap signal, PHF8 (PHF8; GST-tagged PHF8, histone peptide array, arrays performed twice, n of 4): 0.3508
Array Heatmap signal, BAZ2B (BAZ2B; GST-tagged BAZ2B, histone peptide array, arrays performed twice, n of 4): 0.5241
Array Heatmap signal, SP140L (SP140L; GST-tagged SP140L, histone peptide array, arrays performed twice, n of 4): 0.3325
Array Heatmap signal, DPF2 (PPC2W2) (DPF2 (PPC2W2); GST-tagged DPF2 (PPC2W2 = Dual PHD + C2W2-type Zn-finger), histone peptide array, arrays performed twice, n of 4): 0.6168
Array Heatmap signal, RAG2 (RAG2; GST-tagged RAG2, histone peptide array, arrays performed twice, n of 4): 0.246
Array Heatmap signal, KDM4C (TTP) (KDM4C (TTP); GST-tagged KDM4C (TTP = Tandem Tudor domain + PHD), histone peptide array, arrays performed twice, n of 4): 0.4985
Array Heatmap signal, ING3 (ING3; GST-tagged ING3, histone peptide array, arrays performed twice, n of 4): 0.4982
Array Heatmap signal, KDM5A (3) (KDM5A (3); GST-tagged KDM5A (3), histone peptide array, arrays performed twice, n of 4): 0.3736
Array Heatmap signal, CHD5 (PCC) (CHD5 (PCC); GST-tagged CHD5 (PCC = PHD + Dual Chromodomain), histone peptide array, arrays performed twice, n of 4): 0.8259
Array Heatmap signal, KDM7A (KDM7A; GST-tagged KDM7A, histone peptide array, arrays performed twice, n of 4): 0.3757
Array Heatmap signal, MORC3 (CW) (MORC3 (CW); GST-tagged MORC3 (CW = CW-type Zn-finger), histone peptide array, arrays performed twice, n of 4): 0.3458
Array Heatmap signal, ING2 (ING2; GST-tagged ING2, histone peptide array, arrays performed twice, n of 4): 0.5962
Array Heatmap signal, KDM5A (1) (KDM5A (1); GST-tagged KDM5A (1), histone peptide array, arrays performed twice, n of 4): 0.4761
Array Heatmap signal, PHF13 (PHF13; GST-tagged PHF13, histone peptide array, arrays performed twice, n of 4): 0.6115
Array Heatmap signal, PHRF1 (RP) (PHRF1 (RP); GST-tagged PHRF1 (RP), histone peptide array, arrays performed twice, n of 4): 0.4027
Array Heatmap signal, KDM5B (3) (KDM5B (3); GST-tagged KDM5B (3), histone peptide array, arrays performed twice, n of 4): 0.5221
Array Heatmap signal, BPTF (PB) (BPTF (PB); GST-tagged BPTF (PB = PHD + Bromodomain), histone peptide array, arrays performed twice, n of 4): 0.3441
Array Heatmap signal, KDM5B (1) (KDM5B (1); GST-tagged KDM5B (1), histone peptide array, arrays performed twice, n of 4): 0.646
Array Heatmap signal, TRIM66 (PB) (TRIM66 (PB); GST-tagged TRIM66 (PB = PHD + Bromodomain), histone peptide array, arrays performed twice, n of 4): 0.5899

From paper PMC6979384, “Characterization of the plant homeodomain (PHD) reader family for their histone tail interactions” (Epigenetics & Chromatin, 2020)
